One series deals with male ICR mice. Nature of the series: Tolerability in a mouse model (Maximum Tolerated Dose assay). As to conditions: groups of 3. It is filed as in vivo. The essentials:
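Groups of 3 male ICR mice weighing 23±3 g received two subcutaneous doses, 12 h apart, of 30 or 40 mg/kg in saline adjusted to pH 6.5-7.6. Observation for 30 min after each dose covered autonomic effects and acute toxicity, including death.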

The subject of series [1] is Klebsiella pneumoniae SSI #3010. Format: cell-based. Particulars: SSI #3010. Summed up:
(§1)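 MIC in μg/mL, read as no visible growth after 18-20 hours at 35° C. Peptides were serially diluted two-fold in MH-II broth plus P-80 (0.002% final, v/v) and inoculated at about 10^6 CFU/mL following the CLSI broth microdilution standard.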

The subject of series [2] is Pseudomonas aeruginosa ATCC 27853. It is filed as cell-based. Particulars: ATCC 27853. Summed up: as §1
Series [3] concerns Klebsiella pneumoniae 968733. Format: cell-based. As to conditions: 968733. Summed up:
as §1

Series [4] deals with Acinetobacter baumannii 872842. It is filed as cell-based. As to conditions: 872842. The essentials: as §1
A further series concerns Escherichia coli 926415. It is filed as cell-based. As to conditions: 926415. Summed up:
as §1

Series [5] has as its system Enterobacter cloacae 848840. Format: cell-based. Particulars: 848840. The essentials:
as §1

Series [6] relates to Acinetobacter baumannii DSM 30008. It is filed as cell-based. As to conditions: DSM 30008. Summed up:
as §1

In series [7] the test system is Escherichia coli ATCC 25922. It is filed as cell-based. Particulars: ATCC 25922. The essentials: as §1
The test system of series [8] is human red blood cells (hRBC). Nature of the series: Hemolysis. As to conditions: red cells of human, 1 h, 200. Format: cell-based. The essentials: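 hRBC washed 4× in PBS; 200 μg/mL peptide + 20% (v/v) hRBC, 1 h, 37° C, 300 rpm. Spin, supernatant ~7.5-fold diluted, OD540 blank corrected. % hemolysis = OD540 peptide / OD540 Triton X-100 × 100.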
[9] abbreviates: 2 × 40 mg/kg s.c. at a 12-hr interval.

SMILES strings stand for the structures. Values after ≈ are worked out from the molar mass of the structure shown. Where a SMILES comes first, the peptide text is derived from it. Bridges are numbered along the chain shown (N, C = ends). Roman numbers before positions name the chains, in order. [ ]: non-standard residue; d: D form. aThr = C[C@H](O)[C@H](N)C(=O)O; NMeV = CN[C@H](C(=O)O)C(C)C; dDab = NCC[C@@H](N)C(=O)O; hSer = N[C@@H](CCO)C(=O)O; Dab = NCC[C@H](N)C(=O)O; Dap = NC[C@H](N)C(=O)O A value given as a limit tells only on which side of the number the result lay.

One may read the MIC as the lowest concentration that inhibits growth of the organism. As for `CC(=O)N[C@H](C(=O)N[C@H]1CSSC[C@@H](C(=O)N[C@H](C)C(=O)N[C@@H](CO)C(N)=O)NC(=O)[C@H](C(C)C)NC(=O)[C@H](CO)NC(=O)[C@H](Cc2c[nH]c3ccccc23)NC(=O)[C@H](CO)NC(=O)[C@@H](CCN)NC(=O)[C@H](CCC(=O)N[C@@H](CCN)C(=O)N[C@H](C(=O)N[C@@H](CN)C(=O)N[C@H]2CCNC(=O)[C@H]([C@@H](C)O)NC(=O)[C@H](CCN)NC(=O)[C@H](CCN)NC(=O)[C@H](CC(C)C)NC(=O)[C@@H](CC(C)C)NC(=O)[C@H](CCN)NC2=O)[C@@H](C)O)NC(=O)[C@H](CCN)NC(=O)[C@H](Cc2ccc(O)cc2)NC1=O)C(C)C` [Ex. 370] (I: Ac-VCY[Dab]E[dDab]SWSVC[dA]S-NH2 / II: [Dab]T[Dap][Dab][Dab][dL]L[Dab][Dab]T; disulfide I:2-I:11; amide I:5-II:N; lactam II:4-II:C), the Mortality and dose in the series with male ICR mice (setting [9]) is 0/3 died at 2 × 40 mg/kg. In series [1], the “Klebsiella pneumoniae SSI #3010 MIC” value turned out to be 0.0625 µg/mL. The “Pseudomonas aeruginosa ATCC 27853 MIC” value in [2] turned out to be 0.125 µg/mL. For the same compound, the MIC in series [3] was found to be 1 µg/mL (≈ 0.405 µM); in series [4] it was 0.5 µg/mL (≈ 0.202 µM); in the series with Escherichia coli 926415, 0.5 µg/mL (≈ 0.202 µM); in series [5], 0.125 µg/mL (≈ 0.0506 µM). Besides, in series [6], the “Acinetobacter baumannii DSM 30008 MIC” value was found to be 0.0625 µg/mL. Also, the “Escherichia coli ATCC 25922 MIC” value in series [7] worked out at 0.0625 µg/mL. Moreover, the “Hemolysis at 200 μg/mL” value in series [8] was 2%.

As for `CC(=O)N[C@H](C(=O)N[C@H]1CSSC[C@@H](C(=O)N[C@@H](CO)C(N)=O)NC(=O)[C@H](C(C)C)NC(=O)[C@H](CCN)NC(=O)[C@H](Cc2c[nH]c3ccccc23)NC(=O)[C@H](CO)NC(=O)[C@@H](CO)NC(=O)[C@H](CCC(=O)N[C@@H](CCN)C(=O)N[C@H](C(=O)N[C@@H](CN)C(=O)N[C@H]2CCNC(=O)[C@H]([C@@H](C)O)NC(=O)[C@H](CCN)NC(=O)[C@H](CCN)NC(=O)[C@H](CC(C)C)NC(=O)[C@@H](CC(C)C)NC(=O)[C@H](CCN)NC2=O)[C@@H](C)O)NC(=O)[C@H](CCN)NC(=O)[C@H](Cc2ccc(O)cc2)NC1=O)C(C)C` [Ex. 296] (I: Ac-VCY[Dab]E[dS]SW[Dab]VCS-NH2 / II: [Dab]T[Dap][Dab][Dab][dL]L[Dab][Dab]T; disulfide I:2-I:11; amide I:5-II:N; lactam II:4-II:C), the Mortality and dose with male ICR mice (setting [9]) is listed as 0/3 died at 2 × 40 mg/kg. For the same compound, the MIC in series [1] was found to be 0.0625 µg/mL (≈ 0.0261 µM); in [2], 0.25 µg/mL (≈ 0.104 µM); in series [3], 4 µg/mL (≈ 1.67 µM); in [4], 0.25 µg/mL (≈ 0.104 µM); in the series on Escherichia coli 926415, 0.5 µg/mL (≈ 0.208 µM); in [5] it was 0.5 µg/mL (≈ 0.208 µM). Moreover, the MIC in series [6] and in series [7] was 0.125 µg/mL (≈ 0.0521 µM) throughout. For the same compound, the “Hemolysis at 200 μg/mL” value in series [8] is recorded as less than 1%.

`CN[C@H](C(=O)N[C@H]1CSSC[C@@H](C(=O)N[C@@H](CO)C(=O)O)NC(=O)[C@H](C(C)C)NC(=O)[C@H](CO)NC(=O)[C@H](Cc2c[nH]c3ccccc23)NC(=O)[C@H](CCO)NC(=O)[C@@H](CCN)NC(=O)[C@H](CCC(=O)N[C@@H](CCN)C(=O)N[C@H](C(=O)N[C@@H](CCN)C(=O)N[C@H]2CCNC(=O)[C@H]([C@@H](C)O)NC(=O)[C@H](CCN)NC(=O)[C@H](CCN)NC(=O)[C@H](CC(C)C)NC(=O)[C@@H](CC(C)C)NC(=O)[C@H](CCN)NC2=O)[C@@H](C)O)NC(=O)[C@H](CCN)NC(=O)[C@H](Cc2ccc(O)cc2)NC1=O)C(C)C` [Ex. 42] (I: H-[NMeV]CY[Dab]E[dDab][hSer]WSVCS-OH / II: [Dab]T[Dab][Dab][Dab][dL]L[Dab][Dab]T; disulfide I:2-I:11; amide I:5-II:N; lactam II:4-II:C; C-terminus assumed): in the series on male ICR mice (2 × 30 mg/kg s.c. at a 12-hr interval), the Mortality and dose is 0/3 died at 2 × 30 mg/kg. Also, the minimum inhibitory concentration (MIC) in series [1] turned out to be 0.25 µg/mL (≈ 0.104 µM); in series [2], 0.25 µg/mL (≈ 0.104 µM); in series [3] it was 2 µg/mL (≈ 0.833 µM); in series [4] it was 1 µg/mL (≈ 0.417 µM); in the series on Escherichia coli 926415, 0.5 µg/mL (≈ 0.208 µM); in [5] it was 4 µg/mL (≈ 1.67 µM). Besides, the minimal inhibitory concentration (MIC) in series [6] came to 0.5 µg/mL (≈ 0.208 µM); in series [7] it was 0.125 µg/mL (≈ 0.0521 µM). Moreover, the “Hemolysis at 200 μg/mL” value in [8] is less than 1%.

Regarding `CC(=O)N[C@H](C(=O)N[C@H]1CSSC[C@@H](C(=O)N[C@@H](CO)C(N)=O)NC(=O)[C@H](C(C)C)NC(=O)[C@H]([C@H](C)O)NC(=O)[C@H](Cc2c[nH]c3ccccc23)NC(=O)[C@H](CO)NC(=O)[C@@H](CCN)NC(=O)[C@H](CCC(=O)N[C@@H](CCN)C(=O)N[C@H](C(=O)N[C@@H](CN)C(=O)N[C@H]2CCNC(=O)[C@H]([C@@H](C)O)NC(=O)[C@H](CCN)NC(=O)[C@H](CCN)NC(=O)[C@H](CC(C)C)NC(=O)[C@@H](CC(C)C)NC(=O)[C@H](CCN)NC2=O)[C@@H](C)O)NC(=O)[C@H](CCN)NC(=O)[C@H](Cc2ccc(O)cc2)NC1=O)C(C)C` [Ex. 306] (I: Ac-VCY[Dab]E[dDab]SW[aThr]VCS-NH2 / II: [Dab]T[Dap][Dab][Dab][dL]L[Dab][Dab]T; disulfide I:2-I:11; amide I:5-II:N; lactam II:4-II:C), the Mortality and dose in the series on male ICR mice (setting [9]) is given as 0/3 died at 2 × 40 mg/kg. Also, the “Klebsiella pneumoniae SSI #3010 MIC” value in series [1] is 0.0625 µg/mL. In series [2], the “Pseudomonas aeruginosa ATCC 27853 MIC” value was found to be 0.0625 µg/mL. Further, the minimum inhibitory concentration (MIC) stood at 0.125 µg/mL (≈ 0.0518 µM) in [3], 0.0625 µg/mL (≈ 0.0259 µM) in [4], 0.0625 µg/mL (≈ 0.0259 µM) against Escherichia coli 926415 and 0.0625 µg/mL (≈ 0.0259 µM) in series [5]. Also, the “Acinetobacter baumannii DSM 30008 MIC” value in series [6] came out at 0.0625 µg/mL. The “Escherichia coli ATCC 25922 MIC” value in series [7] amounted to 0.03125 µg/mL. Besides, in series [8], the “Hemolysis at 200 μg/mL” value is less than 1%.

As to `CC(=O)N[C@H](C(=O)N[C@H]1CSSC[C@@H](C(=O)N[C@@H](CO)C(N)=O)NC(=O)[C@H](C(C)C)NC(=O)[C@H](CO)NC(=O)[C@H](Cc2c[nH]c3ccccc23)NC(=O)[C@H](CCC(=O)N[C@@H](CCN)C(=O)N[C@H](C(=O)N[C@@H](CN)C(=O)N[C@H]2CCNC(=O)[C@H]([C@@H](C)O)NC(=O)[C@H](CCN)NC(=O)[C@H](CCN)NC(=O)[C@H](CC(C)C)NC(=O)[C@@H](CC(C)C)NC(=O)[C@H](CCN)NC2=O)[C@@H](C)O)NC(=O)[C@@H](CCN)NC(=O)[C@H]([C@@H](C)O)NC(=O)[C@H](CCN)NC(=O)[C@H](Cc2ccc(O)cc2)NC1=O)C(C)C` [Ex. 364] (I: Ac-VCY[Dab]T[dDab]EWSVCS-NH2 / II: [Dab]T[Dap][Dab][Dab][dL]L[Dab][Dab]T; disulfide I:2-I:11; amide I:7-II:N; lactam II:4-II:C), the Mortality and dose in the series with male ICR mice (setting [9]) is 0/3 died at 2 × 40 mg/kg. For the same compound, in [1], the “Klebsiella pneumoniae SSI #3010 MIC” value was 0.0625 µg/mL. Also, the “Pseudomonas aeruginosa ATCC 27853 MIC” value in series [2] stood at 0.125 µg/mL. Further, the MIC is 0.125 µg/mL (≈ 0.0518 µM) in series [3], 0.125 µg/mL (≈ 0.0518 µM) in [4], 0.25 µg/mL (≈ 0.104 µM) in the series on Escherichia coli 926415 and 0.125 µg/mL (≈ 0.0518 µM) in [5]. In addition, the “Acinetobacter baumannii DSM 30008 MIC” value in [6] was found to be 0.0625 µg/mL. Further, in series [7], the “Escherichia coli ATCC 25922 MIC” value is 0.0625 µg/mL. The “Hemolysis at 200 μg/mL” value in series [8] was less than 1%.

Values taken from patent US11629171B2, “Beta-hairpin peptidomimetics” (POLYPHOR AG, priority 2017, dated 2023).
